Consider eight compounds from US20100216798A1, “FUSED HETEROCYCLES AS LCK INHIBITORS” (ASTELLAS PHARMA INC, priority 2005, published 2010).

For this test, the target named is T1, Purified Lck (Upstate) (Homo sapiens, UniProt P06239).
T1 construct: purchased Upstate
The experiment in a line: Assay for Lck Activity. Format: biochemical. Particulars: Src substrate peptide-coated plate ELISA, 0.05 mM ATP, 30° C. for 60 minutes, anti-phosphotyrosine HRP detection. The procedure:
The Src substrate peptide (Upstate) was coated onto 96-well Maxisorp plates (Nunc). Plates were sealed and incubated at 4° C., for 16 hours, washed three times with TBST (20 mM Tris-HCl pH 7.5, 150 mM NaCl and 0.1% Tween-20). The plates were blocked with 0.1% BSA and washed three times with TBST. Purified Lck (Upstate) was incubated in 100 mM Tris-HCl pH 7.5, 125 mM MgCl2, 25 mM MnCl2, 2 mM EGTA, 0.25 mM Sodium Vanadate, 2 mM DTT, 0.05 mM ATP with or without inhibitors at 30° C. for 60 minutes and washed with TBST three times. For quantification of phosphorylated tyrosines, plates were incubated with anti-phosphotyrosine, HRP conjugate (4G10, Upstate) for 1 hour at ambient temperature and washed three times with TBST. Detection was carried out using a color reagent, TMB (KPL). Ten minute after TMB addition the OD at 450 nm was measured.
In general terms: An ELISA detects its analyte on a solid surface through an enzyme-linked reagent.

Each structure is given as a SMILES string.

T1 sequence (P06239 whole entry, species assumed): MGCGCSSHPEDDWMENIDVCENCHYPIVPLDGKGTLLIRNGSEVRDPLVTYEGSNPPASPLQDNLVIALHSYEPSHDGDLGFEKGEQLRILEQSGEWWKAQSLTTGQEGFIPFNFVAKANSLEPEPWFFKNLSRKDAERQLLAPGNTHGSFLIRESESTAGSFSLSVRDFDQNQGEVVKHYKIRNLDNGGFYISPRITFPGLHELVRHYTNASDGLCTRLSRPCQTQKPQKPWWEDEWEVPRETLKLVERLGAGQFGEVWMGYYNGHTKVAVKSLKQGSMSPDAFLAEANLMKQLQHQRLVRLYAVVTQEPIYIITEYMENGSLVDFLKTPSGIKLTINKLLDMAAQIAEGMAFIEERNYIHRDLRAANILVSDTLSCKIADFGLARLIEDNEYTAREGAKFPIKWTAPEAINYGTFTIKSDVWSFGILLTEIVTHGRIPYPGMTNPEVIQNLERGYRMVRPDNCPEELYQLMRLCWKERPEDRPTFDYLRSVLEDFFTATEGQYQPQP

In the case of `c1cc(-c2cnc3ccc(NC4CCOCC4)nn23)ccn1` [Example 16, 3-(4-pyridinyl)-N-(tetrahydro-2H-pyran-4-yl)imidazo[1,2-b]pyridazin-6-amine], the IC50 came out at 460 nM. The figure for `c1cc(-c2cnc3ccc(NC4CCCCC4)nn23)ccn1` [Example 44, N-Cyclohexyl-3-(4-pyridinyl)imidazo[1,2-b]pyridazin-6-amine] is 380 nM.

The compound `c1ccc(Nc2ccc3ncc(-c4ccncc4)n3n2)cc1` [Example 47, N-Phenyl-3-(4-pyridinyl)imidazo[1,2-b]pyridazin-6-amine] registered an IC50 of 350 nM.

Consider `c1ccc(CNc2ccc3ncc(-c4ccncc4)n3n2)cc1` [Example 102, N-Benzyl-3-(4-pyridinyl)imidazo[1,2-b]pyridazin-6-amine], for which half-maximal inhibition (IC50) was put at 310 nM.

On to `c1cc(Nc2ccc3ncc(-c4ccncc4)n3n2)ccn1` [Example 106, N,3-Di-4-pyridinylimidazo[1,2-b]pyridazin-6-amine], for which it took 410 nM to reach half-maximal inhibition (IC50). The figure for `Oc1c(Cl)cc(-c2cnc3ccc(N[C@H]4CC[C@H](O)CC4)nn23)cc1Cl` [Example 127, 2,6-dichloro-4-{6-[(trans-4-hydroxycyclohexyl)amino]imidazo[1,2-b]pyridazin-3-yl}phenol] is 81 nM; for `O[C@H]1CC[C@H](Nc2ccc3ncc(-c4ccnc(F)c4)n3n2)CC1` [Example 153, trans-4-{[3-(2-Fluoro-4-pyridinyl)imidazo[1,2-b]pyridazin-6-yl]amino}cyclohexanol] it is 97 nM; for `c1cc(-c2cnc3ccc(NC45CC6CC(CC(C6)C4)C5)nn23)ccn1` [Example 249, N-1-Adamantyl-3-(4-pyridinyl)imidazo[1,2-b]pyridazin-6-amine] it is 320 nM.

Usually IC50 stands for the point on the concentration scale where inhibition reaches its midpoint. A higher IC50 goes with weaker potency.
